Active and inactive are the calls of the source. How the calls were made is not given here.
Tested on: CCRIS mutagenicity, Ames/micronucleus/aberration tests
Assay: CCRIS mutagenicity studies
[1] = Test System: AMES SALMONELLA TYPHIMURIUM, Strain/Indicator: TA98, Metabolic Activation: NONE, Method: PREINCUBATION
[2] = Test System: AMES SALMONELLA TYPHIMURIUM, Strain/Indicator: TA100, Metabolic Activation: NONE, Method: PREINCUBATION
[3] = Test System: AMES SALMONELLA TYPHIMURIUM, Strain/Indicator: TA1535, Metabolic Activation: NONE, Method: PREINCUBATION
[4] = Test System: AMES SALMONELLA TYPHIMURIUM, Strain/Indicator: TA1537, Metabolic Activation: NONE, Method: PREINCUBATION
[5] = Test System: AMES SALMONELLA TYPHIMURIUM, Strain/Indicator: TA98, Metabolic Activation: NONE, Method: STANDARD PLATE
[6] = Test System: AMES SALMONELLA TYPHIMURIUM, Strain/Indicator: TA100, Metabolic Activation: NONE, Method: STANDARD PLATE

Measured: mutagenic call

OC1C2(Cl)C3(Cl)C4(Cl)C(Cl)(Cl)C5(Cl)C3(Cl)C1(Cl)C5(Cl)C24Cl (stereo unspecified)
inactive: End Point: IN VITRO CHROMOSOMAL ABERRATIONS, Test System: CHINESE HAMSTER OVARY CELLS, Metabolic Activation: NONE inactive; negative | Test System: AMES SALMONELLA TYPHIMURIUM, Strain/Indicator: TA98, Metabolic Activation: HAMSTER, LIVER, S-9, AROCLOR 1254 (10%), Method: PREINCUBATION inactive; negative | [1] inactive; negative | Test System: AMES SALMONELLA TYPHIMURIUM, Strain/Indicator: TA98, Metabolic Activation: RAT, LIVER, S-9, AROCLOR 1254 (10%), Method: PREINCUBATION inactive; negative | Test System: AMES SALMONELLA TYPHIMURIUM, Strain/Indicator: TA100, Metabolic Activation: HAMSTER, LIVER, S-9, AROCLOR 1254 (10%), Method: PREINCUBATION inactive; negative | [2] inactive; negative | Test System: AMES SALMONELLA TYPHIMURIUM, Strain/Indicator: TA100, Metabolic Activation: RAT, LIVER, S-9, AROCLOR 1254 (10%), Method: PREINCUBATION inactive; negative | Test System: AMES SALMONELLA TYPHIMURIUM, Strain/Indicator: TA1535, Metabolic Activation: HAMSTER, LIVER, S-9, AROCLOR 1254 (10%), Method: PREINCUBATION inactive; negative | [3] inactive; negative | Test System: AMES SALMONELLA TYPHIMURIUM, Strain/Indicator: TA1535, Metabolic Activation: RAT, LIVER, S-9, AROCLOR 1254 (10%), Method: PREINCUBATION inactive; negative | Test System: AMES SALMONELLA TYPHIMURIUM, Strain/Indicator: TA1537, Metabolic Activation: HAMSTER, LIVER, S-9, AROCLOR 1254 (10%), Method: PREINCUBATION inactive; negative | [4] inactive; negative | Test System: AMES SALMONELLA TYPHIMURIUM, Strain/Indicator: TA1537, Metabolic Activation: RAT, LIVER, S-9, AROCLOR 1254 (10%), Method: PREINCUBATION inactive; negative

ClC(Cl)(Cl)C(Cl)(Cl)Cl
inactive: End Point: IN VITRO CHROMOSOMAL ABERRATIONS, Test System: CHINESE HAMSTER OVARY CELLS, Metabolic Activation: RAT, LIVER, S-9, AROCLOR 1254 inactive; negative; precipitation occurred at all doses | Test System: AMES SALMONELLA TYPHIMURIUM, Strain/Indicator: TA98, Metabolic Activation: HAMSTER, LIVER, S-9, AROCLOR 1254, Method: PREINCUBATION inactive; negative | [1] inactive; negative | Test System: AMES SALMONELLA TYPHIMURIUM, Strain/Indicator: TA98, Metabolic Activation: RAT, LIVER, S-9, AROCLOR 1254, Method: PREINCUBATION inactive; negative | Test System: AMES SALMONELLA TYPHIMURIUM, Strain/Indicator: TA100, Metabolic Activation: HAMSTER, LIVER, S-9, AROCLOR 1254, Method: PREINCUBATION inactive; negative | [2] inactive; negative | Test System: AMES SALMONELLA TYPHIMURIUM, Strain/Indicator: TA100, Metabolic Activation: RAT, LIVER, S-9, AROCLOR 1254, Method: PREINCUBATION inactive; negative | Test System: AMES SALMONELLA TYPHIMURIUM, Strain/Indicator: TA1535, Metabolic Activation: HAMSTER, LIVER, S-9, AROCLOR 1254, Method: PREINCUBATION inactive; negative | [3] inactive; negative | Test System: AMES SALMONELLA TYPHIMURIUM, Strain/Indicator: TA1535, Metabolic Activation: RAT, LIVER, S-9, AROCLOR 1254, Method: PREINCUBATION inactive; negative | Test System: AMES SALMONELLA TYPHIMURIUM, Strain/Indicator: TA1537, Metabolic Activation: HAMSTER, LIVER, S-9, AROCLOR 1254, Method: PREINCUBATION inactive; negative | [4] inactive; negative | Test System: AMES SALMONELLA TYPHIMURIUM, Strain/Indicator: TA1537, Metabolic Activation: RAT, LIVER, S-9, AROCLOR 1254, Method: PREINCUBATION inactive; negative

C=C(C)c1ccc(C)c2ccc(CO)c-2c1
inactive: [5] inactive; negative | [6] inactive; negative
active: Test System: AMES SALMONELLA TYPHIMURIUM, Strain/Indicator: TA98, Metabolic Activation: RAT, LIVER, S-9, AROCLOR 1254, Method: STANDARD PLATE active; positive | Test System: AMES SALMONELLA TYPHIMURIUM, Strain/Indicator: TA100, Metabolic Activation: RAT, LIVER, S-9, AROCLOR 1254, Method: STANDARD PLATE active; positive

C1=CC2OC2C=C1 (stereo unspecified)
inactive: [5] inactive; negative | Test System: AMES SALMONELLA TYPHIMURIUM, Strain/Indicator: TA98, Metabolic Activation: RAT, LIVER, S-9, PHENOBARBITAL, Method: STANDARD PLATE inactive; negative | [2] inactive; negative | [6] inactive; negative | Test System: AMES SALMONELLA TYPHIMURIUM, Strain/Indicator: TA1535, Metabolic Activation: NONE, Method: STANDARD PLATE inactive; negative | Test System: AMES SALMONELLA TYPHIMURIUM, Strain/Indicator: TM677/8-AZAGUANINE, Metabolic Activation: NONE, Method: PREINCUBATION inactive; negative | Test System: AMES SALMONELLA TYPHIMURIUM, Strain/Indicator: TM677/8-AZAGUANINE, Metabolic Activation: NONE, Method: STANDARD PLATE inactive; negative
active: Test System: AMES SALMONELLA TYPHIMURIUM, Strain/Indicator: TA100, Metabolic Activation: RAT, LIVER, S-9, PHENOBARBITAL, Method: PREINCUBATION active; positive | Test System: AMES SALMONELLA TYPHIMURIUM, Strain/Indicator: TA100, Metabolic Activation: RAT, LIVER, S-9, PHENOBARBITAL, Method: STANDARD PLATE active; positive | Test System: AMES SALMONELLA TYPHIMURIUM, Strain/Indicator: TM677, Metabolic Activation: RAT, LIVER, S-9, PHENOBARBITAL, Method: PREINCUBATION active; positive

CCCCNC(=O)OCC#CI
inactive: End Point: Ames Salmonella typhimurium, Test System: TA98, Metabolic Activation: S-9, Method: Not specified inactive; negative | End Point: Ames Salmonella typhimurium, Test System: TA100, Metabolic Activation: S-9, Method: Not specified inactive; negative | End Point: Ames Salmonella typhimurium, Test System: TA1535, Metabolic Activation: S-9, Method: Not specified inactive; negative | End Point: Ames Salmonella typhimurium, Test System: TA1537, Metabolic Activation: S-9, Method: Not specified inactive; negative | End Point: Ames Salmonella typhimurium, Test System: TA1538, Metabolic Activation: S-9, Method: Not specified inactive; negative | End Point: In vivo micronucleus, Test System: Bone marrow polychromatic erythrocytes, Species: Mouse, Strain/Sex: CD-1/Males and females, Route: Oral inactive; negative | Test System: Ames Salmonella typhimurium, Strain/Indicator: TA98, Metabolic Activation: None, Method: Not specified inactive; negative | Test System: Ames Salmonella typhimurium, Strain/Indicator: TA100, Metabolic Activation: None, Method: Not specified inactive; negative | Test System: Ames Salmonella typhimurium, Strain/Indicator: TA1535, Metabolic Activation: None, Method: Not specified inactive; negative | Test System: Ames Salmonella typhimurium, Strain/Indicator: TA1537, Metabolic Activation: None, Method: Not specified inactive; negative | Test System: Ames Salmonella typhimurium, Strain/Indicator: TA1538, Metabolic Activation: None, Method: Not specified inactive; negative
